This passage reports EC50, ACE-inhibitory activity (%) of the HILIC-purified fraction VM-P7 (enzyme activity; all fractions and ACE-inhibitory activity (%) of the HILIC-purified fraction M-P6 (enzyme activity; all fractions results from publication PMC6315844, “Two Novel Multi-Functional Peptides from Meat and Visceral Mass of Marine Snail Neptunea arthritica cumingii and Their Activities In Vitro and In Vivo” (Marine Drugs, 2018).

In one assay the test system is ACE. To be noted: data recorded in biopep database; read-out: EC50 (ACE inhibition); cited from earlier work. From the text:
ACE catalyzes the conversion of angiotensin I to angiotensin II, a potent vasoconstrictor, and promotes degradation of the vasodilator bradykinin [31]; thus, inhibition of ACE activity may help with reducing blood pressure. Because high-molecular-weight peptides cannot occupy the active site of ACE [32], ACE-inhibitory peptides are typically 2–30 amino acids in length.

The target of assay [1] is T1, angiotensin-converting enzyme (from the rabbit lung) (rabbit) (UniProt P12822).
T1 sequence: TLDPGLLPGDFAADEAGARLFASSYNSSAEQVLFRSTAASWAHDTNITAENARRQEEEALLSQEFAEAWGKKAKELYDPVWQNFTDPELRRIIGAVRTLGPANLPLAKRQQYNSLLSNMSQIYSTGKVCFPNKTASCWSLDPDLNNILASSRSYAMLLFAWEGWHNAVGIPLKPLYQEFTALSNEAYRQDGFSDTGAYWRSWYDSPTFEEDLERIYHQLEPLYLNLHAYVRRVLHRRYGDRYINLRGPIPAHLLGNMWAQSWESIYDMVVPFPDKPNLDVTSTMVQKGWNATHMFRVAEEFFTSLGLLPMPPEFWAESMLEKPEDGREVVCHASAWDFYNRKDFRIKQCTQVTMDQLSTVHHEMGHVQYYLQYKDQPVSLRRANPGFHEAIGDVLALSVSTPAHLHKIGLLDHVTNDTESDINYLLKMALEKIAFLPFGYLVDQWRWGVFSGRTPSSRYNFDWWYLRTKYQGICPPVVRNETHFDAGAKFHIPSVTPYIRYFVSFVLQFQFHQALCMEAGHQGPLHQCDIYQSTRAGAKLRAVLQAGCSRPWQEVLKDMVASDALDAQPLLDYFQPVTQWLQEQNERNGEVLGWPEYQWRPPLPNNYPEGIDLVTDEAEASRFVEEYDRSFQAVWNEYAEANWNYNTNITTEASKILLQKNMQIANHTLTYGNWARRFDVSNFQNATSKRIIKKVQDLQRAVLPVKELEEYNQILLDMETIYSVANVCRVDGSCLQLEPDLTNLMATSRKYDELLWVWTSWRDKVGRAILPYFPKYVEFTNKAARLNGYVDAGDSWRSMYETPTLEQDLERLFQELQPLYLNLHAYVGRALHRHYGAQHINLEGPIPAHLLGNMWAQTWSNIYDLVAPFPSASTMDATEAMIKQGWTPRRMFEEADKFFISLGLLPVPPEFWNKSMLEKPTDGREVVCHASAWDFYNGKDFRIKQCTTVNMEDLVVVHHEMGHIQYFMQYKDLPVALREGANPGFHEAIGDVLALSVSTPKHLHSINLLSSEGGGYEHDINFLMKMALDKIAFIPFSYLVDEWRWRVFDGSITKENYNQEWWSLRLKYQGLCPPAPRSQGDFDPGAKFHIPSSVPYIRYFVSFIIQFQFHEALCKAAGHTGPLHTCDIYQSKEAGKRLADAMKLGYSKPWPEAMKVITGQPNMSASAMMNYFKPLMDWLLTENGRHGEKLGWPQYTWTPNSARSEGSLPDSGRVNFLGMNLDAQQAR

Consider YIPIQYVLSR, for which, in the assay with ACE, the EC50 is 132 µM.
Turning to YLYEIAR, the EC50 with ACE is 16 µM.
On to YLYEIARR, for which, in the assay with ACE, the EC50 is 86 µM.

B1: YIAEDAER (Tyr-Ile-Ala-Glu-Asp-Ala-Glu-Arg) (peptide)
peptide: YIAEDAER
B1 displayed an ACE-inhibitory activity (%) of the HILIC-purified fraction VM-P7 (enzyme activity; all fractions at the same concentration) in assay [1] of 75%.

B2: … (Tyr-Ser-Gln-Leu-Glu-Asn-Glu-Phe-Asp-Arg) (peptide)
peptide: YSQLENEFDR
In assay [1], B2 yielded an ACE-inhibitory activity (%) of the HILIC-purified fraction M-P6 (enzyme activity; all fractions at the same concentration) of 84.8%.

By EC50 is commonly meant the concentration at which the effect is half-maximal.
